How the values were obtained:
HMG-CoA reductase [1] = biological target: T1, HMG-CoA reductase (Rattus norvegicus, UniProt P51639); test: Inhibition of HMG-CoA reductase in a microsome fraction from rat liver; assay type: biochemical; conditions: rat liver microsomes; for HMG-CoA-reductase Inhibition in %: concentration not given, method: 10^-4 M or 10^-5 M
T1 construct: microsomes from rat livers; from tissue; host or cells: liver of cholestyramine-treated rats (reversed day/night rhythm), microsome fraction
T1 sequence (P51639 1-887): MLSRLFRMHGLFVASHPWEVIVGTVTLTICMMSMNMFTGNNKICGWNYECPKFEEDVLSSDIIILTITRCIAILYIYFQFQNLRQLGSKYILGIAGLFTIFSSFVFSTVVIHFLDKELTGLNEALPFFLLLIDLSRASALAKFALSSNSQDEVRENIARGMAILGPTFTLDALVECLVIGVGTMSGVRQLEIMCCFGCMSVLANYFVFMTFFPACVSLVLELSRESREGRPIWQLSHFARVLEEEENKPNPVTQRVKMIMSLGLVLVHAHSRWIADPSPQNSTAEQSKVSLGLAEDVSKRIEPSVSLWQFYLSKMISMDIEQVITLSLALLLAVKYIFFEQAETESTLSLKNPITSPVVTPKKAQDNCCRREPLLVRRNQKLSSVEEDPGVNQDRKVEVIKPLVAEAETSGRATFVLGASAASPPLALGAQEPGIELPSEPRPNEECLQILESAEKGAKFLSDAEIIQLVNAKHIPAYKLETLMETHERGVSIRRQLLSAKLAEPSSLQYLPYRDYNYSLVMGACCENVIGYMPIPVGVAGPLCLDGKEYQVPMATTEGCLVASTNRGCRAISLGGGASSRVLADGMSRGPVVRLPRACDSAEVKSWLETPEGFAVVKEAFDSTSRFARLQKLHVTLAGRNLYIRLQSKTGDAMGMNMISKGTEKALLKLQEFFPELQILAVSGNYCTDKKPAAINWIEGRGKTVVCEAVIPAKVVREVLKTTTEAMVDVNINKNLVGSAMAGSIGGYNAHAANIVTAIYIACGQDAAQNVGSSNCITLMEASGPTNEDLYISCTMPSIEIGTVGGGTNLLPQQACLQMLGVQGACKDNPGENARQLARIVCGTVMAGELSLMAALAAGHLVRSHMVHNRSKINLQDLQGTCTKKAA
Text: Inhibition of HMG-CoA reductase in a microsome fraction from rat liver
For the determination of the HMG-CoA reductase activity, microsomes from rat livers, which had been treated for 7 days in the case of reversed day/night rhythm with cholestyramine, were separated by centrifuging. The action of the test compounds at a concentration of 10^-4 M or 10^-5 M on the formation of mevalonate from (S,R) ^14 C--HMG--CoA was investigated. The experimental conditions are described in detail by J. Huber. S. Latzien and B. Hamprecht, Hoppe-Seylers Z. Physiol. Chem., 354, 1654/1973.

HMG-CoA reductase [2] = conditions: literature: Endo 1976; Alberts 1980; cited from earlier work

Structure (SMILES) | HMG-CoA-reductase Inhibition in % (HMG-CoA reductase [1]) [%] | competitive inhibition of HMG-CoA reductase (in words) (HMG-CoA reductase [2]) | other results
O=C1C[C@H](O)C[C@@H](/C=C/c2c(Cl)cc(Cl)cc2C2CCCCCC2)O1 (relative stereo) [2 (a)] | 95 |  | 
O=C1C[C@H](O)C[C@@H](/C=C/c2c(Cl)cccc2C2CCCCCC2)O1 (relative stereo) [2 (b)] | 93 |  | 
O=C1C[C@H](O)C[C@@H](/C=C/c2c(Cl)cc(Cl)cc2C2CCCCC2)O1 (relative stereo) [2 (c)] | 90 |  | 
O=C1C[C@H](O)C[C@@H](/C=C/c2ccccc2C2=CCCCC2)O1 (relative stereo) [2 (i)] |  |  | inhibition at 100 µM (HMG-CoA reductase [1]; 10^-4 M): 63%
CC[C@H](C)C(=O)O[C@H]1CCC=C2C=C[C@H](C)[C@H](CC[C@@H]3C[C@@H](O)CC(=O)O3)[C@H]21 [compactin A] |  | competitively to inhibit HMG-CoA reductase | 
CC[C@H](C)C(=O)O[C@H]1C[C@@H](C)C=C2C=C[C@H](C)[C@H](CC[C@@H]3C[C@@H](O)CC(=O)O3)[C@H]21 [mevinolin] |  | competitively to inhibit HMG-CoA reductase | 

Source: patent US4970077A, “6-substituted-4-hydroxytetrahydropyran-2-one derivatives and pharmaceutical compositions containing them” (Boehringer Mannheim GmbH, priority 1988, dated 1990)
